Test results: publication PMC11187542, “Identification of fragments targeting SMYD3 using highly sensitive kinetic and multiplexed biosensor-based screening” (RSC Medicinal Chemistry, 2024)
Several values for one entry are separate records, joined by “and”; a condition that tells them apart may be missing. Equal entries are not always repeated.

Biological target: T1, SMYD3 (Homo sapiens, UniProt Q9H7B4)
T1 construct: Full length recombinant SMYD3 was produced as previously reported; made in house; host or cells: E. coli BL21(DE3), in some cases Rosetta 2
T1 sequence (Q9H7B4 1-428): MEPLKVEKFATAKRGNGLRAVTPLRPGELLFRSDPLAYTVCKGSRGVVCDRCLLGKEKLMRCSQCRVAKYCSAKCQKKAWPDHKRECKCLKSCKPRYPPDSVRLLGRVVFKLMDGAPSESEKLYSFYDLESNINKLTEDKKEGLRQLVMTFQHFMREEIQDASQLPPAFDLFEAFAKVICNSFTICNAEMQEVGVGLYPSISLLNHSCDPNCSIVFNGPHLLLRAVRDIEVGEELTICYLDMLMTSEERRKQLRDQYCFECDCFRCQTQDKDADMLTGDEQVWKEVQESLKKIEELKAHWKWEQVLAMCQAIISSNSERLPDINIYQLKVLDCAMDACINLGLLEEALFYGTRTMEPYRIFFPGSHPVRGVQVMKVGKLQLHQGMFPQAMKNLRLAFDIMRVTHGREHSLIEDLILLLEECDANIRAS
Experiment: X-ray crystallography of SMYD3-fragment complexes (co-crystallization and soaking)
Parameters: key to XRC: success or failure of crystallization in complex with SMYD3: The success (+) or failure (−) of crystallization in complex with SMYD3; The success (+) or failure (−) of crystallization in complex with SMYD3
Source text: To identify binding sites and binding modes, the fragment hits (Table 1) were used in both co-crystallization and soaking experiments to obtain SMYD3-fragment co-crystals for X-ray crystallographic analyses. Diffraction data of 1.6–1.9 Å maximum resolution were obtained for four fragments (Fig. 5). For data collection and refinement statistics, see ESI, ^† Table S1.
Four new sites were thus identified.
Polder (F0–Fc) maps (Fig. 5, right) were generated to establish whether the observed electron density features were more likely to represent background noise or to belong to bound fragments. These omit maps are generated upon exclusion of the ligand and surrounding solvent from the model, which aids in visualizing weak densities. […] For fragments FL01507, FL08580 and FL08619, a comparison of the maps obtained after refinement with a bound fragment with maps obtained upon their replacement with either glycerol or acetate, which were present in the crystallization or cryo-protectant solutions, respectively, was required.
8 mg mL^−1 of SMYD3 in storage buffer (TBS buffer containing 2 mM DTT) was pre-incubated for 4–8 hours with 5 mM of a respective fragment hit compound and 10% (v/v) DMSO. Subsequently, 1 μL of this solution was mixed with an equal volume of reservoir solution (100 mM Tris, 100 mM magnesium acetate, 15–17% PEG3350, pH 8.25–8.75) to create the drops for co-crystallization by hanging drop vapour diffusion performed at 20 °C. Needle-like co-crystals nucleated within 12 h of equilibration against the reservoir. In addition, crystals of SMYD3 obtained in ligand-free crystallization setups were soaked with fragment solution prior to freezing. All crystals were cryo-protected via brief immersion in reservoir solution supplemented with 10% (v/v) glycerol.
Diffraction data were collected at beamline ID23-1 of the European Synchrotron Radiation Facility (ESRF, Grenoble, France). Data were indexed, auto-processed, scaled and merged on-site using the implemented data processing routines and software. Fragment-associated electron density features were identified upon data analysis with the Pipedream system (version 1.4.0, Global Phasing Ltd, Cambridge, United Kingdom), which includes data processing with autoPROC,[14] molecular replacement with Phaser,[15] structure refinement with BUSTER version 2.10.4 (Global Phasing Ltd, Cambridge, United Kingdom), automated ligand fitting with Rhofit (Global Phasing Ltd, Cambridge, United Kingdom) and BUSTER post-refinement.[16] Refinement was done with Phenix,[17] and model building with Coot.[18] (F0–Fc) difference density maps for models, from which ligand atoms and surrounding water molecules were removed, were generated using Phenix.

XRC: success or failure of crystallization in complex with SMYD3 (5 mM fragment co-crystallization or soaking): (+)
Compound: Cn1cnc(S(N)(=O)=O)c1 [FL06268]
Site (binding site in SMYD3 crystal structure) (four sites defined (1–4, Fig. 6) plus active site): both the active site (green surface) and site 2 and 2 + active
